In patent US20230406821A1, “STRIGOLACTONE DERIVATIVES” (Plant Response, Inc., priority 2017, published 2023):

Tested on: Zea mays Dekalb Hybrid DKC68-26RIB
Assay: Stomatal conductance (LI-6400XT) of sprayed maize plants
Format: in vivo
Conditions: EC formulation plus 1% Crop Oil Concentrate, foliar spray 2 grams/acre, measured next morning (FIG. 7)
Text: FIG. 7 is a boxplot representing the distribution of stomatal conductance (mmol/m^2/s) measurements taken via LI-6400XT on Zea mays plants treated with EC formulation blank and Crop Oil Concentrate (control; EC) or strigolactone molecule MBS-127, EC formulation blank and Crop Oil Concentrate (MBS-127+EC). […] Letters define significant classes with P<0.05. Points show observations falling outside of the whiskers and have been jittered along the x-axis to avoid overlap.
Water transport is closely intertwined with many vital plant processes, including photosynthesis, translocation, mineral nutrition, growth, and plays a critical role in defining the yield potential of a crop field (Azizian, A., & Sepaskhah, A. R. “Maize response to water, salinity and nitrogen levels: yield-water relation, water-use efficiency and water uptake reduction function,” International Journal of Plant Production (2014) Vol. 8(2), pp. 183-214). The compounds of formulas described herein induce increased leaf conductance in the leaves of intact Z. mays plants (FIG. 7).
In this experiment maize (Zea mays Dekalb Hybrid DKC68-26RIB) plants were grown in a greenhouse in one-gallon pots filled with Sunshine #2 soil-less growing mix. […] Leaves were acclimated within the LI6400XTR sensor head until gas exchange measurements had stabilized for conductance and then the conductance for that leaf determined.

COC(=O)/C=C/OC1C=C(C)C(=O)O1 (stereo not shown) [MBS-127, 3-(4-Methyl-5-oxo-2,5-dihydro-furan-2-yloxy)-acrylic acid methyl ester]
increase in stomatal conductance compared to the control group: 60%
